In the NIST ThermoML archive (doi:10.1016/j.jct.2012.11.020):

Assay: wn = mass fraction of the nth substance listed
Details: 298.15 K, 100 kPa, Liquid, Alternating current cell with electrodes

C1CC[NH2+]C1.O=[N+]([O-])[O-] [pyrrolidinium nitrate] + CC1COC(=O)O1
Details | electrical conductivity [S/m]
w1 = 0.1266 | 0.874
w1 = 0.1348 | 0.927
w1 = 0.1441 | 0.989
w1 = 0.1543 | 1.06
w1 = 0.1646 | 1.12
w1 = 0.1788 | 1.24
w1 = 0.1948 | 1.32
w1 = 0.2149 | 1.45
w1 = 0.2396 | 1.62
w1 = 0.2529 | 1.7
w1 = 0.2692 | 1.94
w1 = 0.2862 | 2.05
w1 = 0.3073 | 2.2
w1 = 0.3274 | 2.32
w1 = 0.3479 | 2.46
w1 = 0.3768 | 2.63
w1 = 0.3915 | 2.71
w1 = 0.4212 | 2.86
w1 = 0.4476 | 3.05
w1 = 0.4916 | 3.21
w1 = 0.5453 | 3.46
w1 = 0.5834 | 3.62
w1 = 0.6211 | 3.74
w1 = 0.6897 | 3.92
w1 = 0.7407 | 4.12
w1 = 0.8065 | 4.28
w1 = 0.8913 | 4.47
w1 = 1 | 4.22
